{"source": "patent US6355799B1", "about": "“Substituted benzene compounds, process for their preparation, and herbicidal and defoliant compositions containing them” (ISK Americas Incorporated, priority 1997, dated 2002)", "type_in_all_cases": "in vivo", "key": {"[1]": {"system": "redroot pigweed (Amaranthus retroflexus, AMARE)", "experiment": "Pre-emerge test, greenhouse herbicide activity screening", "conditions": "pre-emerge, rated 14 days after application, 0 = no damage, 100 = complete death", "how_it_was_run": "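Herbicidal damage is scored 0 (none) to 100 (complete plant death) two weeks after a simulated field spray. Rates span 15–1000 g ai/ha, delivered in acetone at 187 l/ha. For post-emergence treatments, plants have 2–3 leaves and the spray carries 0.25% v/v non-ionic surfactant.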"}, "[2]": {"system": "barnyardgrass (Echinochloa crus-galli, ECHCG)", "experiment": "Pre-emerge test, greenhouse herbicide activity screening", "conditions": "pre-emerge, rated 14 days after application, 0 = no damage, 100 = complete death", "how_it_was_run": "(§1)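 Compounds in acetone were track-sprayed at 15–1000 g ai/ha: pre-emergence onto soil sown the previous day, then top-watered to incorporate and later bottom-watered; post-emergence onto 2–3 leaf plants with 0.25% v/v surfactant, bottom-watered only. Ratings on a 0–100 phytotoxicity scale were taken at day 14.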"}, "[3]": {"system": "green foxtail (Setaria viridis, SETVI)", "experiment": "Pre-emerge test, greenhouse herbicide activity screening", "conditions": "pre-emerge, rated 14 days after application, 0 = no damage, 100 = complete death", "how_it_was_run": "as §1"}, "[4]": {"system": "ivyleaf morningglory (Ipomoea hederacea, IPOHE)", "experiment": "Pre-emerge test, greenhouse herbicide activity screening", "conditions": "pre-emerge, rated 14 days after application, 0 = no damage, 100 = complete death", "how_it_was_run": "as §1"}, "[5]": {"system": "johnsongrass (Sorghum halepense, SORHA)", "experiment": "Pre-emerge test, greenhouse herbicide activity screening", "conditions": "pre-emerge, rated 14 days after application, 0 = no damage, 100 = complete death", "how_it_was_run": "as §1"}, "[6]": {"system": "lambsquarters (Chenopodium album, CHEAL)", "experiment": "Pre-emerge test, greenhouse herbicide activity screening", "conditions": "pre-emerge, rated 14 days after application, 0 = no damage, 100 = complete death", "how_it_was_run": "as §1"}, "[7]": {"system": "large crabgrass (Digitaria sanguinalis, DIGSA)", "experiment": "Pre-emerge test, greenhouse herbicide activity screening", "conditions": "pre-emerge, rated 14 days after application, 0 = no damage, 100 = complete death", "how_it_was_run": "as §1"}, "[8]": {"system": "sicklepod (Cassia obtusifolia, CASOB)", "experiment": "Pre-emerge test, greenhouse herbicide activity screening", "conditions": "pre-emerge, rated 14 days after application, 0 = no damage, 100 = complete death", "how_it_was_run": "as §1"}, "[9]": {"system": "velvetleaf (Abutilon theophrasti, ABUTH)", "experiment": "Pre-emerge test, greenhouse herbicide activity screening", "conditions": "pre-emerge, rated 14 days after application, 0 = no damage, 100 = complete death", "how_it_was_run": "as §1"}, "[10]": {"system": "field corn (Zea mays L., var. Dekalb 535, CORN)", "experiment": "Pre-emerge test, crop safety", "conditions": "pre-emerge, rated 14 days after application, 0 = no damage, 100 = complete death", "how_it_was_run": "(§2)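 Plants grown in 10 cm pots of sandy loam mix received acetone-dissolved compounds through a moving flat-fan nozzle. Doses ranged from 15 to 1000 g ai/ha. Pre-emerge pots were seeded one day earlier, post-emerge pots 8–21 days earlier. Fourteen days on, each pot was graded 0–100 for damage.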"}, "[11]": {"system": "upland rice (Oryza sp., var. Tebonnet, RICE)", "experiment": "Pre-emerge test, crop safety", "conditions": "pre-emerge, rated 14 days after application, 0 = no damage, 100 = complete death", "how_it_was_run": "as §2"}, "[12]": {"system": "barnyardgrass (Echinochloa crus-galli, ECHCG)", "experiment": "Post-emerge test, greenhouse herbicide activity screening", "conditions": "phytotoxicity rating 0-100 (0 no damage, 100 complete death), 14 days after application", "how_it_was_run": "(§3)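 Fourteen days after spraying, crop and weed injury was graded visually from 0, no effect, to 100, every plant dead. Test substances were dissolved in acetone and applied at 15–1000 g ai/ha with a flat-fan nozzle. Application was either pre-emergence, one day after sowing, or post-emergence at the 2–3 leaf stage.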"}, "[13]": {"system": "green foxtail (Setaria viridis, SETVI)", "experiment": "Post-emerge test, greenhouse herbicide activity screening", "conditions": "phytotoxicity rating 0-100 (0 no damage, 100 complete death), 14 days after application", "how_it_was_run": "as §3"}, "[14]": {"system": "ivyleaf morningglory (Ipomoea hederacea, IPOHE)", "experiment": "Post-emerge test, greenhouse herbicide activity screening", "conditions": "phytotoxicity rating 0-100 (0 no damage, 100 complete death), 14 days after application", "how_it_was_run": "as §3"}, "[15]": {"system": "johnsongrass (Sorghum halepense, SORHA)", "experiment": "Post-emerge test, greenhouse herbicide activity screening", "conditions": "phytotoxicity rating 0-100 (0 no damage, 100 complete death), 14 days after application", "how_it_was_run": "as §3"}, "[16]": {"system": "lambsquarters (Chenopodium album, CHEAL)", "experiment": "Post-emerge test, greenhouse herbicide activity screening", "conditions": "phytotoxicity rating 0-100 (0 no damage, 100 complete death), 14 days after application", "how_it_was_run": "as §3"}, "[17]": {"system": "large crabgrass (Digitaria sanguinalis, DIGSA)", "experiment": "Post-emerge test, greenhouse herbicide activity screening", "conditions": "phytotoxicity rating 0-100 (0 no damage, 100 complete death), 14 days after application", "how_it_was_run": "as §3"}, "[18]": {"system": "redroot pigweed (Amaranthus retroflexus, AMARE)", "experiment": "Post-emerge test, greenhouse herbicide activity screening", "conditions": "phytotoxicity rating 0-100 (0 no damage, 100 complete death), 14 days after application", "how_it_was_run": "as §3"}, "[19]": {"system": "velvetleaf (Abutilon theophrasti, ABUTH)", "experiment": "Post-emerge test, greenhouse herbicide activity screening", "conditions": "phytotoxicity rating 0-100 (0 no damage, 100 complete death), 14 days after application", "how_it_was_run": "as §3"}, "[20]": {"system": "field corn (Zea mays L., var. Dekalb 535, CORN)", "experiment": "Post-emerge test, crop safety", "conditions": "phytotoxicity rating 0-100 (0 no damage, 100 complete death), 14 days after application", "how_it_was_run": "(§4)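 Rating: 0–100 visual injury, 14 DAA. Application: acetone, 187 l/ha, 15–1000 g ai/ha, flat-fan track sprayer with nozzle 40–45 cm above soil or canopy. Post-emerge runs used 0.25% v/v surfactant on 2–3 leaf plants.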"}, "[21]": {"system": "upland rice (Oryza sp., var. Tebonnet, RICE)", "experiment": "Post-emerge test, crop safety", "conditions": "phytotoxicity rating 0-100 (0 no damage, 100 complete death), 14 days after application", "how_it_was_run": "as §4"}}, "data": [{"smiles": "C=Cc1ccc(C(=O)Nc2c(OC)c(Cl)cc(F)c2-n2c(=O)cc(C(F)(F)F)n(C)c2=O)cc1", "note": "[2-31]", "values": [{"measurement": "Pre-emerge Herbicidal Activity AMARE (phytotoxicity rating, scale 0-100)", "setting": "[1]; 63 g ai/ha", "result": 100}, {"measurement": "Pre-emerge Herbicidal Activity AMARE (phytotoxicity rating, scale 0-100)", "setting": "[1]; 250 g ai/ha", "result": 100}, {"measurement": "Pre-emerge Herbicidal Activity ECHCG (phytotoxicity rating, scale 0-100)", "setting": "[2]; 63 g ai/ha", "result": 40}, {"measurement": "Pre-emerge Herbicidal Activity ECHCG (phytotoxicity rating, scale 0-100)", "setting": "[2]; 250 g ai/ha", "result": 100}, {"measurement": "Pre-emerge Herbicidal Activity SETVI (phytotoxicity rating, scale 0-100)", "setting": "[3]; 63 g ai/ha", "result": 100}, {"measurement": "Pre-emerge Herbicidal Activity SETVI (phytotoxicity rating, scale 0-100)", "setting": "[3]; 250 g ai/ha", "result": 100}, {"measurement": "Pre-emerge Herbicidal Activity IPOHE (phytotoxicity rating, scale 0-100)", "setting": "[4]; 63 g ai/ha", "result": 100}, {"measurement": "Pre-emerge Herbicidal Activity IPOHE (phytotoxicity rating, scale 0-100)", "setting": "[4]; 250 g ai/ha", "result": 100}, {"measurement": "Pre-emerge Herbicidal Activity SORHA (phytotoxicity rating, scale 0-100)", "setting": "[5]; 63 g ai/ha", "result": 60}, {"measurement": "Pre-emerge Herbicidal Activity SORHA (phytotoxicity rating, scale 0-100)", "setting": "[5]; 250 g ai/ha", "result": 85}, {"measurement": "Pre-emerge Herbicidal Activity CHEAL (phytotoxicity rating, scale 0-100)", "setting": "[6]; 63 g ai/ha", "result": 100}, {"measurement": "Pre-emerge Herbicidal Activity CHEAL (phytotoxicity rating, scale 0-100)", "setting": "[6]; 250 g ai/ha", "result": 100}, {"measurement": "Pre-emerge Herbicidal Activity DIGSA (phytotoxicity rating, scale 0-100)", "setting": "[7]; 63 g ai/ha", "result": 90}, {"measurement": "Pre-emerge Herbicidal Activity DIGSA (phytotoxicity rating, scale 0-100)", "setting": "[7]; 250 g ai/ha", "result": 100}, {"measurement": "Pre-emerge Herbicidal Activity CASOB (phytotoxicity rating, scale 0-100)", "setting": "[8]; 63 g ai/ha", "result": 100}, {"measurement": "Pre-emerge Herbicidal Activity CASOB (phytotoxicity rating, scale 0-100)", "setting": "[8]; 250 g ai/ha", "result": 100}, {"measurement": "Pre-emerge Herbicidal Activity ABUTH (phytotoxicity rating, scale 0-100)", "setting": "[9]; 63 g ai/ha", "result": 100}, {"measurement": "Pre-emerge Herbicidal Activity ABUTH (phytotoxicity rating, scale 0-100)", "setting": "[9]; 250 g ai/ha", "result": 100}, {"measurement": "Pre-emerge crop damage CORN (phytotoxicity rating, scale 0-100)", "setting": "[10]; 63 g ai/ha", "result": 20}, {"measurement": "Pre-emerge crop damage CORN (phytotoxicity rating, scale 0-100)", "setting": "[10]; 250 g ai/ha", "result": 40}, {"measurement": "Pre-emerge crop damage RICE (phytotoxicity rating, scale 0-100)", "setting": "[11]; 63 g ai/ha", "result": 40}, {"measurement": "Pre-emerge crop damage RICE (phytotoxicity rating, scale 0-100)", "setting": "[11]; 250 g ai/ha", "result": 90}, {"measurement": "Post-emerge Herbicidal Activity ECHCG", "setting": "[12]; 63 g ai/ha", "result": 10}, {"measurement": "Post-emerge Herbicidal Activity ECHCG", "setting": "[12]; 250 g ai/ha", "result": 40}, {"measurement": "Post-emerge Herbicidal Activity SETVI", "setting": "[13]; 63 g ai/ha", "result": 10}, {"measurement": "Post-emerge Herbicidal Activity SETVI", "setting": "[13]; 250 g ai/ha", "result": 20}, {"measurement": "Post-emerge Herbicidal Activity IPOHE", "setting": "[14]; 63 g ai/ha", "result": 90}, {"measurement": "Post-emerge Herbicidal Activity IPOHE", "setting": "[14]; 250 g ai/ha", "result": 100}, {"measurement": "Post-emerge Herbicidal Activity SORHA", "setting": "[15]; 63 g ai/ha", "result": 10}, {"measurement": "Post-emerge Herbicidal Activity SORHA", "setting": "[15]; 250 g ai/ha", "result": 30}, {"measurement": "Post-emerge Herbicidal Activity CHEAL", "setting": "[16]; 63 g ai/ha", "result": 80}, {"measurement": "Post-emerge Herbicidal Activity CHEAL", "setting": "[16]; 250 g ai/ha", "result": 95}, {"measurement": "Post-emerge Herbicidal Activity DIGSA", "setting": "[17]; 63 g ai/ha", "result": 0}, {"measurement": "Post-emerge Herbicidal Activity DIGSA", "setting": "[17]; 250 g ai/ha", "result": 20}, {"measurement": "Post-emerge Herbicidal Activity AMARE", "setting": "[18]; 63 g ai/ha", "result": 100}, {"measurement": "Post-emerge Herbicidal Activity AMARE", "setting": "[18]; 250 g ai/ha", "result": 90}, {"measurement": "Post-emerge Herbicidal Activity ABUTH", "setting": "[19]; 63 g ai/ha", "result": 100}, {"measurement": "Post-emerge Herbicidal Activity ABUTH", "setting": "[19]; 250 g ai/ha", "result": 100}, {"measurement": "Post-emerge Herbicidal Activity CORN (crop damage)", "setting": "[20]; 63 g ai/ha", "result": 40}, {"measurement": "Post-emerge Herbicidal Activity CORN (crop damage)", "setting": "[20]; 250 g ai/ha", "result": 60}, {"measurement": "Post-emerge Herbicidal Activity RICE (crop damage)", "setting": "[21]; 63 g ai/ha", "result": 50}, {"measurement": "Post-emerge Herbicidal Activity RICE (crop damage)", "setting": "[21]; 250 g ai/ha", "result": 70}]}]}
